Consider one compound from article PMC4850510 (ACS Central Science, 2016).

By IC50 is commonly meant the concentration at which inhibition is half-maximal.

One assay has as its system CBS. Particulars: read-out: IC50 for CBS; cited from earlier work.
The next assay addresses GABA AT (Rattus norvegicus, UniProt P50554). Briefly: GABA transaminase. Format: biochemical.

Sequence of GABA AT (P50554 28-500): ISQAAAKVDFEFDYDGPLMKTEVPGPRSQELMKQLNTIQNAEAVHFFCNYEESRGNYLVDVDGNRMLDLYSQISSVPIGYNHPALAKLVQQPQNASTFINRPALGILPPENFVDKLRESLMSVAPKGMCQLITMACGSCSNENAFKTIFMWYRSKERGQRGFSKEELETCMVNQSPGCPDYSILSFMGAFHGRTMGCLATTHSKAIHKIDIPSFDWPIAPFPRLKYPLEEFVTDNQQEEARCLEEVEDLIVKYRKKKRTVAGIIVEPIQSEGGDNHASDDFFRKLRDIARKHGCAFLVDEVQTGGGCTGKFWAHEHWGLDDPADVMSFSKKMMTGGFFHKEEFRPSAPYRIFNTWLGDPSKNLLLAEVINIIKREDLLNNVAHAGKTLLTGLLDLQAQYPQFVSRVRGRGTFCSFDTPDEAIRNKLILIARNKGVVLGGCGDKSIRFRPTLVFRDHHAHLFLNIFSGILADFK

For `NOCC(=O)O` [AOAA, aminooxyacetic acid], the 50% inhibitory concentration (IC50) in the assay on CBS was roughly 12 µM; at GABA AT (read-out: IC50 for GABA AT, rat brain homogenate), roughly 0.36 µM. The “fold better inhibitor of GABA AT than of CBS” value at GABA AT (IC50 GABA AT vs IC50 CBS) is recorded as 33 fold.
